Test results published in patent US20120101163A1, “COMPOSITION FOR INHIBITING CANCER METASTASIS” (TAIPEI MEDICAL UNIVERSITY, priority 2010, published 2012).

What was measured:
[1] = test system: human umbilical vein endothelial cells; experiment: Cell viability assay of human umbilical vein endothelial cells; format: cell-based; conditions: 24 hours
Method: A medium in a culturing plate containing cells grown covering the whole bottom of the culturing plate, was removed. The cells were washed with 10 ml of PBS, and then suspended and mixed well with 10 ml of medium (a part of the cells need to be suspended with Trypsin-EDTA buffer). The numbers of the cells were calculated by a hemocytometer, and the cells were diluted to an appropriate cell concentration and added into the wells of a 24 well culturing plate by an amount of 500 μl/well. The 24 well culturing plates were placed in an incubator at 37° C. in a humidified atmosphere containing 5% CO2. After the cells were attached onto the bottom of the wells, the medium in each well was removed, and fresh mediums with different concentrations of a test drug were added into wells, respectively (if the cells were suspension cells, the fresh medium may be added into the wells, directly). Then, the 24 well culturing plates were placed in an incubator at 37° C. in a humidified atmosphere containing 5% CO2 for 24 hours. After that, an upper medium in each well was removed. The cells were washed with a PBS buffer twice, and then an MTT solution which was prepared with a medium was added to each well. After the 24 well culturing plates were placed in an incubator at 37° C. for reacting 4-6 hours, an upper medium in each well was removed, and 100 μl of DMSO was added to each well to solubilize the formazan precipitates. After that, an ELISA reader was used to determine the absorbance for each well at 600 nm.
After human umbilical vein endothelial cells were treated with the different concentrations of L-Aspartic acid β-hydroxamate (CH) and different concentrations of L-Glutamic acid γ-hydroxamate (DH) for 24 hours, respectively, the cell viability assays were performed to the treated human umbilical vein endothelial cells and the angiogenesis conditions of the human umbilical vein endothelial cells were recorded. The results of the cell viability assays are shown as FIGS. 13 (A) and 14 (A). Photographs for the human umbilical vein endothelial cells treated with L-Aspartic acid β-hydroxamate (CH) and human umbilical vein endothelial cells treated with L-Glutamic acid γ-hydroxamate (DH) are shown as FIGS. 13 (B) and 14 (B), respectively.

[2] = test system: human umbilical vein endothelial cells; experiment: Tube formation assay (angiogenesis); format: cell-based
Method: 13. Tube Formation Assay (Malinda et al., 1999)
1μ-Slide Angiogenesis ibiTreat chambers were coated with 10 μl Matrigel™ Mixtrix and placed in an incubator at 37° C. for 1 hour. 40 μl of a 3×10^5 cells/ml cell suspension was added to each chamber and left still for 20 minutes to let the cells attach to the chamber. After that, the medium in each chamber was removed. Fresh mediums with different concentrations of a test drug were added to the chambers, respectively and placed in an incubator at 37° C. After 18 hours, the angiogenesis appearance in each chamber was observed and photographed for recording.

[3] = test system: matrix metalloproteinase-2; experiment: Gelatin gel zymography of PMA-induced HT 1080 cells, MMP-2 activity; format: cell-based, Human; conditions: HT 1080 cells, 0.4, 0.8, 1.2 and 1.6 mM, 24 hours
Method: (§1) 4. Gelatin Gel Zymography (Shim et al., 2003; Park et al., 2005; Hwang et al., 2006)
(§2) HT 1080 cells with appropriate cell numbers were cultured in 60 mm culturing plates for 12 hours, respectively. After the cells were attached onto the bottom of the plate and formed a monolayer, the medium in the plate was removed. Fresh serum free mediums with different concentrations of a test sample were added to the plates, respectively, and 100 nM PMA was added to each plate to induce the cells to express great quantities of matrix metalloproteinase-2 and matrix metalloproteinase-9, and the plates were placed in a temperature of 37° C. for 24 hours. After centrifugation, each cultured supernatant were saved and mixed with SDS-sample buffer under the same protein contents which were then injected into a 10% SDS-polyacrylamide gel (containing 1 mg/ml gelatin) and then electrophoresed. After the electrophoresis was completed, the gel was taken out and washed with 20 mM Tris-HCl containing 25% isopropanol three times; 10 minutes per time. Then the gel was equilibrated with 20 mM Tris-HCl for 30 minutes, and finally an incubate buffer (5 mM CaCl2 and 1 mM ZnCl2) was added to the gel and reacted with the gel overnight. Then the gel was stained with coomassie blue, and positions having matrix metalloproteinase activity of the gel presented a white color.

[4] = test system: matrix metalloproteinase-9; experiment: Gelatin gel zymography of PMA-induced HT 1080 cells, MMP-9 activity; format: cell-based, Human; conditions: HT 1080 cells, 0.4, 0.8, 1.2 and 1.6 mM, 24 hours
Method: as §1, §2

SMILES	cytotoxicity to human umbilical vein endothelial cells ([1]; 0.25 mM)	viability of human umbilical vein endothelial cells ([1]; 0.75 mM)	angiogenesis inhibition at 0.25 mM ([2]; 0.25 mM)	inhibition rate to angiogenesis ([2]; about 0.1-1.5 mM, stated as embodiment)	angiogenesis compared with the control group ([2]; increasing concentrations)	matrix metalloproteinase-2 inhibiting activity [3]	matrix metalloproteinase-9 inhibiting activity [4]
NC(CC(=O)NO)C(=O)O [CH, L-Aspartic acid β-hydroxamate]	no cytotoxicity	slight decreases	already had an effect of inhibiting angiogenesis	10-90%	significantly inhibited	–	–
N[C@@H](CCC(=O)O)C(=O)O [D, L-Glutamic acid, reference compound]	–	–	–	–	–	no inhibiting effect	no inhibiting effect
